Where two headings read alike, the source gives them in different places.
Key:
[1] = system: HIV-1 laboratory strain, NL4-3; assay: MT-4 cytoprotection assay; type: cell-based
Protocol: The HTLV-1 transformed T cell line, MT-4, is highly susceptible to HIV-1 infection. Anti-HIV-1 agents were evaluated in this target cell line by protection from the HIV-induced cytopathic effect. In this assay, viability of both HIV-1 and mock-infected cells was assessed in a […] assay that monitors the ability of metabolically-active cells to reduce the tetrazolium salt WST-1. Cytoprotection by antiviral compounds is indicated by the positive readout of increased WST-1 cleavage.
Briefly, exponentially growing MT-4 cells were mock-infected or batch-infected with the HIV-1 laboratory strain, NL4-3, at a multiplicity of infection of 0.0005. Following a two hour infection, the cells were washed to remove unbound virus and plated in the presence of increasing concentrations of compound. After four days incubation, cytoprotection in the infected cells and compound toxicity in mock-infected cells were analyzed using the WST-1 assay.

[2] = system: HIV-1NL4-3; assay: P4-MAGI assay; type: cell-based
Description: P4 cells were used to test the effects of compounds on virus fusion activity. P4 cells are HIV-1 infectable CD4^+ HeLa cells that bear the bacterial lacZ gene under the control of a minimal HIV-1 LTR. Charneau, et. al., J. Mol. Biol. 241:651-662 (1994). When these cells are infected with HIV-1, β-galactosidase is expressed due to Tat activation of the viral LTR. In this assay, P4 cells were infected with the laboratory adapted strain HIV-1NL4-3 at a multiplicity of infection of 1 in the presence of DEAE-Dextran. Immediately after addition of virus to the cells, increasing concentrations of compound were added to the cells. […] The effect on cell viability (TC50, concentration of compound that inhibits growth by 50%) was determined in mock-infected cells with the WST-1 Cell Proliferation Reagent (Roche Diagnostics).

[3] = Human immunodeficiency virus 1, NL43, MT4, 96 h, MT-4 cells, four days incubation, WST-1 readout, read-out: MT4 EC50
[4] = Human immunodeficiency virus 1, 24 h, P4 cells, 24 hour incubation, β-galactosidase expression, read-out: P4-MAGI IC50
[5] = Human immunodeficiency virus 1, NL43, less than about 100 nm, read-out: MT-4 assay EC50 (concentration of compound that reduces the virus induced cytopathic effect by 50%)
[6] = Human immunodeficiency virus 1, text statement, less than about 100 nm, read-out: P4-MAGI assay IC50

| Compound | EC50 [1, 3] | IC50 [2, 4] | EC50 [1, 5] | IC50 [2, 6] |
| --- | --- | --- | --- | --- |
| C=C(C)[C@@H]1CC[C@]2(C(=O)NCc3cccc(C(=O)NCCNC(=O)OCc4ccccc4)c3)CC[C@]3(C)C(CCC4[C@@]5(C)CC[C@H](O)C(C)(C)C5CC[C@]43C)C12 (stereo partly shown) [Example 5] | 2500 nM | 107 nM |  |  |
| C=C(C)[C@@H]1CC[C@]2(C(=O)NCc3cccc(C(=O)NCc4cccc(C(=O)O)c4)c3)CC[C@]3(C)C(CCC4[C@@]5(C)CC[C@H](O)C(C)(C)C5CC[C@]43C)C12 (stereo partly shown) [Example 6] | 71 nM | 15.6 nM | < 100 nM | < 100 nM |
| C=C(C)[C@@H]1CC[C@]2(C(=O)NCc3cccc(C(=O)NCc4ccc(C(=O)O)cc4)c3)CC[C@]3(C)C(CCC4[C@@]5(C)CC[C@H](O)C(C)(C)C5CC[C@]43C)C12 (stereo partly shown) [Example 7] | 7.2 nM | 21.4 nM | < 100 nM | < 100 nM |
| C=C(C)[C@@H]1CC[C@]2(C(=O)NCc3cccc(C(=O)NCCc4ccc(C(=O)O)cc4)c3)CC[C@]3(C)C(CCC4[C@@]5(C)CC[C@H](O)C(C)(C)C5CC[C@]43C)C12 (stereo partly shown) [Example 9] | 5.5 nM | 22.3 nM | < 100 nM | < 100 nM |
| C=C(C)[C@@H]1CC[C@]2(C(=O)NCc3cccc(C(=O)NCCc4ccccc4C(=O)O)c3)CC[C@]3(C)C(CCC4[C@@]5(C)CC[C@H](O)C(C)(C)C5CC[C@]43C)C12 (stereo partly shown) [Example 10] | 1300 nM | 128 nM |  |  |
| C=C(C)[C@@H]1CC[C@]2(C(=O)NCc3cccc(C(=O)NCc4ccc(O)c(C(=O)O)c4)c3)CC[C@]3(C)C(CCC4[C@@]5(C)CC[C@H](O)C(C)(C)C5CC[C@]43C)C12 (stereo partly shown) [Example 13] | 873 nM | 28 nM |  | < 100 nM |
| C=C(C)[C@@H]1CC[C@]2(C(=O)NCc3cccc(C(=O)NCc4cccc(C(=O)O)c4C)c3)CC[C@]3(C)C(CCC4[C@@]5(C)CC[C@H](O)C(C)(C)C5CC[C@]43C)C12 (stereo partly shown) [Example 17] | 87 nM | 32 nM | < 100 nM | < 100 nM |
| C=C(C)[C@@H]1CC[C@]2(C(=O)NCc3cccc(C(=O)Nc4ccc5cc(C(=O)O)ccc5c4)c3)CC[C@]3(C)C(CCC4[C@@]5(C)CC[C@H](O)C(C)(C)C5CC[C@]43C)C12 (stereo partly shown) [Example 18] | 6100 nM | 108 nM |  |  |
| C=C(C)[C@@H]1CC[C@]2(C(=O)NCc3cccc(C(=O)NCC(C)c4cccc(C(=O)O)c4)c3)CC[C@]3(C)C(CCC4[C@@]5(C)CC[C@H](O)C(C)(C)C5CC[C@]43C)C12 (stereo partly shown) [Example 19] | 19 nM | 6.2 nM | < 100 nM | < 100 nM |
| C=C(C)[C@@H]1CC[C@]2(C(=O)NCc3cccc(C(=O)NCc4cccc(-c5nn[nH]n5)c4)c3)CC[C@]3(C)C(CCC4[C@@]5(C)CC[C@H](O)C(C)(C)C5CC[C@]43C)C12 (stereo partly shown) [Example 21] | 180 nM | 24.8 nM |  |  |
| C=C(C)[C@@H]1CC[C@]2(C(=O)NCc3cccc(C(=O)NCc4ccc(C(=O)O)cc4F)c3)CC[C@]3(C)C(CCC4[C@@]5(C)CC[C@H](O)C(C)(C)C5CC[C@]43C)C12 (stereo partly shown) [Example 22] | 9.7 nM | 15.4 nM | < 100 nM |  |
| C=C(C)[C@@H]1CC[C@]2(C(=O)NCc3cccc(C(=O)NCc4cccc(C(N)=O)c4)c3)CC[C@]3(C)C(CCC4[C@@]5(C)CC[C@H](O)C(C)(C)C5CC[C@]43C)C12 (stereo partly shown) [Example 23] | 329 nM | 52.7 nM |  |  |
| C=C(C)[C@@H]1CC[C@]2(C(=O)NCc3cccc(C(=O)NCc4cc(C(=O)OC)ccc4F)c3)CC[C@]3(C)C(CCC4[C@@]5(C)CC[C@H](O)C(C)(C)C5CC[C@]43C)C12 (stereo partly shown) [Example 24] | > 10000 nM | 186 nM |  |  |
| C=C(C)[C@@H]1CC[C@]2(C(=O)NCc3cccc(C(=O)NCc4ccc(F)c(C(=O)OC)c4)c3)CC[C@]3(C)C(CCC4[C@@]5(C)CC[C@H](O)C(C)(C)C5CC[C@]43C)C12 (stereo partly shown) [Example 25] | 100 nM | 40.4 nM | < 100 nM | < 100 nM |
| C=C(C)[C@@H]1CC[C@]2(C(=O)NCc3cccc(C(=O)NCc4cc(C(=O)O)ccc4F)c3)CC[C@]3(C)C(CCC4[C@@]5(C)CC[C@H](O)C(C)(C)C5CC[C@]43C)C12 (stereo partly shown) [Example 26] | 200 nM | 78.6 nM |  | < 100 nM |
| C=C(C)[C@@H]1CC[C@]2(C(=O)NCc3cccc(C(=O)NCc4ccc(F)c(C(=O)O)c4)c3)CC[C@]3(C)C(CCC4[C@@]5(C)CC[C@H](O)C(C)(C)C5CC[C@]43C)C12 (stereo partly shown) [Example 27] | 73 nM | 53.5 nM | < 100 nM | < 100 nM |
| C=C(C)[C@@H]1CC[C@]2(C(=O)NCc3cccc(C(=O)NCc4ccc(C(=O)OC)s4)c3)CC[C@]3(C)C(CCC4[C@@]5(C)CC[C@H](O)C(C)(C)C5CC[C@]43C)C12 (stereo partly shown) [Example 29] | 18 nM | 37.9 nM | < 100 nM | < 100 nM |
| C=C(C)[C@@H]1CC[C@]2(C(=O)NCc3cccc(C(=O)NCCc4ccc(F)c(C(=O)O)c4)c3)CC[C@]3(C)C(CCC4[C@@]5(C)CC[C@H](O)C(C)(C)C5CC[C@]43C)C12 (stereo partly shown) [Example 32] | 3000 nM | 15 nM |  | < 100 nM |
| C=C(C)[C@@H]1CC[C@]2(C(=O)NCc3cccc(C(=O)NCCc4ccc(F)c(C(=O)OC)c4)c3)CC[C@]3(C)C(CCC4[C@@]5(C)CC[C@H](O)C(C)(C)C5CC[C@]43C)C12 (stereo partly shown) [Example 33] | 18 nM | 135 nM | < 100 nM |  |
| C=C(C)[C@@H]1CC[C@]2(C(=O)NCc3cccc(C(=O)NCc4ccc(C(=O)O)c(F)c4)c3)CC[C@]3(C)C(CCC4[C@@]5(C)CC[C@H](O)C(C)(C)C5CC[C@]43C)C12 (stereo partly shown) [Example 34] | 19 nM | 24.3 nM | < 100 nM | < 100 nM |
| C=C(C)[C@@H]1CC[C@]2(C(=O)NCc3cccc(C(=O)NCc4ccc(C(=O)O)s4)c3)CC[C@]3(C)C(CCC4[C@@]5(C)CC[C@H](O)C(C)(C)C5CC[C@]43C)C12 (stereo partly shown) [Example 35] | 85 nM | 53.2 nM | < 100 nM | < 100 nM |
| C=C(C)[C@@H]1CC[C@]2(C(=O)NCc3cccc(C(=O)NCCc4cccc(C(=O)O)c4F)c3)CC[C@]3(C)C(CCC4[C@@]5(C)CC[C@H](O)C(C)(C)C5CC[C@]43C)C12 (stereo partly shown) [Example 36] | 8.5 nM | 16.4 nM | < 100 nM | < 100 nM |
| C=C(C)[C@@H]1CC[C@]2(C(=O)NCc3cccc(C(=O)NCC(F)(F)c4ccc(C(=O)O)cc4)c3)CC[C@]3(C)C(CCC4[C@@]5(C)CC[C@H](O)C(C)(C)C5CC[C@]43C)C12 (stereo partly shown) [Example 37] | 7.3 nM | 56.7 nM | < 100 nM | < 100 nM |
| C=C(C)[C@@H]1CC[C@]2(C(=O)NCc3cccc(C(=O)NCC(C)(C)c4cccc(C(=O)O)c4)c3)CC[C@]3(C)C(CCC4[C@@]5(C)CC[C@H](O)C(C)(C)C5CC[C@]43C)C12 (stereo partly shown) [Example 39] | 5.3 nM | 40.2 nM | < 100 nM | < 100 nM |
| C=C(C)[C@@H]1CC[C@]2(C(=O)NCc3cccc(C(=O)NCCc4ccc(C(=O)O)c(F)c4)c3)CC[C@]3(C)C(CCC4[C@@]5(C)CC[C@H](O)C(C)(C)C5CC[C@]43C)C12 (stereo partly shown) [Example 40] | 6.3 nM | 19.9 nM | < 100 nM | < 100 nM |
| C=C(C)[C@@H]1CC[C@]2(C(=O)NCc3cccc(C(=O)NCc4cccc(C(=O)O)c4F)c3)CC[C@]3(C)C(CCC4[C@@]5(C)CC[C@H](O)C(C)(C)C5CC[C@]43C)C12 (stereo partly shown) [Example 41] | 1.9 nM | 36.7 nM | < 100 nM | < 100 nM |
| C=C(C)[C@@H]1CC[C@]2(C(=O)NCc3cccc(C(=O)NCc4cccc(C(=O)OC)c4F)c3)CC[C@]3(C)C(CCC4[C@@]5(C)CC[C@H](O)C(C)(C)C5CC[C@]43C)C12 (stereo partly shown) [Example 42] | 42 nM | 58.3 nM | < 100 nM | < 100 nM |
| C=C(C)[C@@H]1CC[C@]2(C(=O)NCc3cccc(C(=O)NCCc4ccc(C(=O)O)cc4F)c3)CC[C@]3(C)C(CCC4[C@@]5(C)CC[C@H](O)C(C)(C)C5CC[C@]43C)C12 (stereo partly shown) [Example 43] | 9.3 nM | 16.8 nM | < 100 nM | < 100 nM |
| C=C(C)[C@@H]1CC[C@]2(C(=O)NCc3cccc(C(=O)NCCc4ccc(S(N)(=O)=O)cc4)c3)CC[C@]3(C)C(CCC4[C@@]5(C)CC[C@H](O)C(C)(C)C5CC[C@]43C)C12 (stereo partly shown) [Example 45] | 94 nM | 15.9 nM | < 100 nM | < 100 nM |
| C=C(C)[C@@H]1CC[C@]2(C(=O)NCc3cccc(C(=O)NCc4ccc(N(C)C)cc4)c3)CC[C@]3(C)C(CCC4[C@@]5(C)CC[C@H](O)C(C)(C)C5CC[C@]43C)C12 (stereo partly shown) [Example 47] | 41.3 nM | 36.3 nM | < 100 nM | < 100 nM |

— patent US20090275583A1, “ANTIVIRAL COMPOUNDS AND USE THEREOF” (Myriad Genetics, Incorporated, priority 2006, published 2009)
